Test results reported in patent US8546608B2, “Proteasome inhibitors and methods of using the same” (Cephalon, Inc., priority 2003, dated 2013).

Columns and labels:
[1] = biological target: T1, 20S Human Erythrocyte Proteasome (HEP) (Homo sapiens, UniProt P20618+P28074); experiment: Chymotrypsin-like activity of 20S Human Erythrocyte Proteasome (HEP), IC50 determination; type: biochemical; conditions: assay of Example C, inhibition of HEP
T1 construct: 20S Human Erythrocyte Proteasome (HEP), purchased from Immatics Biotechnologies Inc; purchased Immatics Biotechnologies Inc., Tübingen, Germany; host or cells: human erythrocytes (natural source)
How it was run: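 20S proteasome at 0.2 μg/mL (about 0.6 nM catalytic sites) in 20 mM Tris with 0.04% SDS, preincubated 15 min at 37° C with inhibitor before Suc-LLVY-AMC (100 μM final). AMC fluorescence read in the linear range; triplicates, IC50 from concentration series.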

[2] = biological target: T2, proteasome in Molt-4 cells (human leukemia) (Homo sapiens, UniProt P20618+P28074); type: cell-based; conditions: assay of Example E, inhibition of MOLT4; read-out: MOLT4 (EC50)
T2 sequence (P28074 60-263): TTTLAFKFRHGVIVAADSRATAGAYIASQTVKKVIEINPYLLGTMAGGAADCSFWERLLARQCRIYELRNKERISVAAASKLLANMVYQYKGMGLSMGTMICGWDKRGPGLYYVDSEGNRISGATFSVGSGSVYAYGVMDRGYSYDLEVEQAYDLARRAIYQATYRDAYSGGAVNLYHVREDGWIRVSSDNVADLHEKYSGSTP
T2 sequence (P20618 29-241): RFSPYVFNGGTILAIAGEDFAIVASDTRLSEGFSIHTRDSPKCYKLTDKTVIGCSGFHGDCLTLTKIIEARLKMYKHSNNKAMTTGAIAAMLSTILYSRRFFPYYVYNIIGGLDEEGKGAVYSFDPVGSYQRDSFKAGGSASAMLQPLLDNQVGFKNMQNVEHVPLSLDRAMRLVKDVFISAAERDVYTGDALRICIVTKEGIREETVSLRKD
How it was run: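 Intact Molt-4 cells (6×10^6 cells/mL) in HEPES-buffered saline were preincubated with inhibitor 15 min at 37 °C, then given cell-permeable MeOSuc-FLF-AFC at 25 μM final.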

| IC50 [1] [µM] | EC50 [2] [µM] | Compound |
| --- | --- | --- |
| < 0.01 | < 0.2 | CCCCCC/C=C/CC(=O)N[C@@H](CCCNC(=N)N[N+](=O)[O-])C(=O)N[C@@H](CC(C)C)B1O[C@@H]2C[C@@H]3C[C@@H](C3(C)C)[C@]2(C)O1 [D.3.70, (E)-Dec-3-enoic acid amide,N-[(1S)-1-[[[(1R)-1-[(3aS,4S,6S,7aR)-hexahydro-3a,5,5-trimethyl-4,6-methano-1,3,2-benzodioxaborol-2-yl]-3-methylbutyl]amino]carbonyl]-4-[[imino(nitroamino)methyl]amino]butyl]] |
| < 0.01 | 2 to 10 | CCCCCC/C=C/C(=O)N[C@@H](CCCNC(=N)N[N+](=O)[O-])C(=O)N[C@@H](CC(C)C)B(O)O [E.2.19, Boronic acid, [(1R)-1-[[(2S)-5-[[imino(nitroamino)methyl]amino]-2-[(non-2-enoyl)amino]-1-oxopentyl]amino]-3-methylbutyl]] |
| < 0.01 | 0.2 to 2 | COC(=O)CCCC(=O)N[C@@H](CCCNC(=N)N[N+](=O)[O-])C(=O)N[C@@H](CC(C)C)B1O[C@@H]2C[C@@H]3C[C@@H](C3(C)C)[C@]2(C)O1 [D.2.1, 4-(methoxycarbonyl)butanamide,N-[(1S)-1-[[[(1R)-1-[(3aS,4S,6S,7aR)-hexahydro-3a,5,5-trimethyl-4,6-methano-1,3,2-benzodioxaborol-2-yl]-3-methylbutyl]amino]carbonyl]-4-[[imino(nitroamino)methyl]amino]butyl]] |
| < 0.01 | < 0.2 | CC(C)C[C@H](NC(=O)[C@H](CCCNC(=N)N[N+](=O)[O-])NC(=O)CCCCCCCCCN1C(=O)c2ccccc2C1=O)B(O)O [E.1.20] |

Second part, the compound before the results:

| Compound | IC50 [1] [µM] | EC50 [2] [µM] |
| --- | --- | --- |
| CC(C)C[C@H](NC(=O)[C@H](CCCNC(=N)N[N+](=O)[O-])NC(=O)/C=C/c1ccc2ccccc2c1)B(O)O [D.7.36, Boronic acid, [(1R)-1-[[(2S)-5-[[imino(nitroamino)methyl]amino]-2-[[(E)-3-(naphthalen-2-yl)prop-2-enoyl]amino]-1-oxopentyl]amino]-3-methylbutyl]] | < 0.01 | 2 to 10 |
| CC(C)C[C@H](NC(=O)[C@H](CCCNC(=N)N[N+](=O)[O-])NC(=O)c1cnccn1)B1O[C@@H]2C[C@@H]3C[C@@H](C3(C)C)[C@]2(C)O1 [D.1.2] | < 0.1 | 0.2 to 2 |
| CCOc1ccc(C(=O)N[C@@H](CCCNC(=N)N[N+](=O)[O-])C(=O)N[C@@H](CC(C)C)B(O)O)cc1 [D.7.31, Boronic acid, [(1R)-1-[[(2S)-5-[[imino(nitroamino)methyl]amino]-2-[(4-ethoxybenzoyl)amino]-1-oxopentyl]amino]-3-methylbutyl]] | < 0.01 | > 10 |
| CC(C)C[C@H](NC(=O)[C@H](CCCNC(=N)N[N+](=O)[O-])NC(=O)CCCCC1CCCCC1)B(O)O [D.7.24, Boronic acid, [(1R)-1-[[(2S)-5-[[imino(nitroamino)methyl]amino]-2-[(5-cyclohexylpentanoyl)amino]-1-oxopentyl]amino]-3-methylbutyl]] | < 0.01 | 0.2 to 2 |
| CC(C)C[C@H](NC(=O)[C@H](CCCNC(=N)N[N+](=O)[O-])NC(=O)CCCCCCCCC#N)B1O[C@@H]2C[C@@H]3C[C@@H](C3(C)C)[C@]2(C)O1 [D.3.186, 9-Cyanononamide, N-[(1S)-1-[[[(1R)-1-[(3aS,4S,6S,7aR)-hexahydro-3a,5,5-trimethyl-4,6-methano-1,3,2-benzodioxaborol-2-yl]-3-methylbutyl]amino]carbonyl]-4-[[imino(nitroamino)methyl]amino]butyl]] | < 0.01 | < 0.2 |
| CC(C)C[C@H](NC(=O)[C@@H](NC(=O)c1ccc2ccccc2c1)[C@@H](C)O)B1O[C@@H]2C[C@@H]3C[C@@H](C3(C)C)[C@]2(C)O1 [D.3.180, Naphthalene-2-carboxamide,N-[(1S,2R)-1-[[[(1R)-1-[(3aS,4S,6S,7aR)-hexahydro-3a,5,5-trimethyl-4,6-methano-1,3,2-benzodioxaborol-2-yl]-3-methylbutyl]amino]carbonyl]-2-hydroxypropyl]] | < 0.01 | < 0.2 |
